In patent US11245111B2, “Stable positive side material for all-organic flow battery” (UNIVERSITY OF SOUTHERN CALIFORNIA, priority 2017, dated 2022):

Assay: Proto-desulfonation studies (heat treatment in sulfuric acid)
Format: physicochemical
Details: 1 M solution, 24 hours in 1M sulfuric acid at 60 degrees Celsius
Protocol: Proto-Desulfonation Studies.
We determined that the molecule was stable against proto-desulfonation, by heat treatment of 1 M solution of DHDMDS 24 hours in 1M sulfuric acid at 60 degrees Celsius. […] If decomposition occurred there would be the formation of a precipitate of an insoluble de-sulfonated material.

| stability against proto-desulfonation (decomposition products observed) | SMILES |
| --- | --- |
| decomposes readily | Cc1cc(O)c(S(=O)(=O)O)c(C)c1O [DHDMBS, 2,5-dihydroxy-4,6-dimethylbenzene-1-sulfonic acid] |
| no decomposition products | Cc1c(O)c(C)c(S(=O)(=O)O)c(O)c1S(=O)(=O)O [DHDMDS, 2,5-dihydroxy-4,6-dimethylbenzene-1,3-disulfonic acid] |
